In the case of `CC(CCCC(C)(C)O)C1CCC2C3CC=C4CC(O)CC(O)C4(C)C3CCC12C` (stereo not drawn), the melting point (usually the temperature of the solid-liquid transition) was 170 to 172 °C.

Molecule `Cc1cccc(C)c1NC(=O)NC1CC(C)(C)c2ccccc2C1(C)C` (stereo not drawn) had a melting point of 216 to 218 °C.

Regarding `CCNC(=O)c1ccccc1Nc1nc(Nc2ccc3c(c2)C(C)(C)CNC(=O)C3)ncc1Cl`, the melting point was in the range of 261 to 262 °C.

Turning to `Cn1cc(C(=O)NCc2ccc(Cl)cc2)c(=O)c2cc(CN3CCOCC3)cc(C#CCO)c21`, the melting point was in the range of 180 to 183 °C.

`COn1nnc2cc3c(=O)n(C(C)Cn4ncnn4)nnc3cc2c1=O` (stereo not drawn) came in with a melting point of 227 to 231 °C.

Take `Nc1nc(-c2ccc(F)cc2)cn1N`: the melting point fell in the range of 227 to 230 °C.

Take `CCOC(=O)Cc1nc(-c2ccc(Cl)cc2)oc1OCC`: the melting point fell in the range of 144 to 146 °C.

With `c1ccc(-c2cn(C3CCCN4CCCCC34)nn2)cc1` (stereo not drawn), the melting point is 150 °C.

With `OC(CN1CCN(c2ccccn2)CC1)(Cn1cncn1)c1ccc(Cl)cc1Cl` (stereo not drawn), the melting point fell in the range of 116 to 118 °C.

In turn, `COC1CCC(NC(=O)C2CC3c4cccc5c4c(cn5C(C)C)CC3N(C)C2)CC1` (stereo not drawn) yielded a melting point of more than 230 °C.

Molecule `CC(=O)Nc1cccc(-c2nc(=O)c3ccccc3s2)c1` had a melting point of 241 to 242 °C.

Regarding `CCOP(=O)(Cc1ccc(NC(=O)c2sc(SC)c3c2CCc2sc(CC)nc2-3)cc1)OCC`, the melting point fell in the range of 179 to 180 °C.

For `CON1C(=O)CC2(CCN(C(=O)C3=CN(C)C=CC3)CC2)C1=O`, the melting point was 46 to 62 °C.

Molecule `O=C(Oc1ccc(Cl)cn1)c1cc2cc([N+](=O)[O-])ccc2oc1=O` showed a melting point of 287 to 289 °C.

Regarding `O=C(O)CCC(Cc1ccccc1Br)(C(=O)C=Cc1ccc(Cl)cc1)c1ccccc1` (stereo not drawn), the melting point is 210 to 214 °C.

Molecule `Cc1c(F)c(F)c(N)c2c(=O)c(C(=O)O)cn(-c3nc(N)c(F)cc3F)c12` displayed a melting point of 250 °C.

Molecule `NC(=O)c1cc([N+](=O)[O-])cc([N+](=O)[O-])c1Cl` showed a melting point of 181 to 183 °C.

As for `CS(=O)(=O)c1ccc(-c2[nH]c3ccccc3c2-c2ccc(Br)cc2)cc1`, the melting point lay in the range of 225 to 226 °C.

`CCCC(CC(=O)NC(=O)OC(C)(C)C)Nc1ccccc1` (stereo not drawn) gave a melting point of 103 to 104 °C.

Molecule `Cc1ccc(C2=NCCc3c(Cl)cccc32)cc1` yielded a melting point of 82.7 to 83.4 °C.

The molecule `CCOc1nn(-c2ccccn2)cc1CCCOc1cccc(OC(C)(C)C(=O)O)c1` showed a melting point of 99 to 101 °C.

For the molecule `CSc1cc2c(cn1)c(=O)n1nccc1n2C`, the melting point was determined as 267 °C.

As for `CCN(CC)CCNC(=O)c1cc(Cl)c(N)cc1O`, the melting point lay in the range of 134 to 136 °C.

In turn, `CC(C)(C)OC(=O)CCc1nc(C(=O)OC(C)(C)C)ccc1O` returned a melting point of 172 to 174 °C.

`COc1cc(/C=C/C(=O)CC(=O)c2ccc(I)cc2)ccc1O` had a melting point of 139 to 141 °C.

In turn, `CCOC(=O)C1=C(c2ccc(-n3c(C)nc4cnccc43)cc2)NC(C)=C(C(=O)Nc2ccccn2)C1c1ccccc1Cl` (stereo not drawn) displayed a melting point of 226 to 228 °C.

Molecule `CC1=C(C(=O)OC(C)C)C(c2cccc([N+](=O)[O-])c2)N(CCCc2ccccc2)C(=O)N1` (stereo not drawn) returned a melting point of 150 to 152 °C.

Molecule `CCCC(=O)Cc1cc(OC)ccc1NC(=O)OC(C)(C)C` had a melting point of 77 to 78 °C.

In the case of `COC(=O)c1cccn1-c1cc2[nH]c(=O)c(=O)[nH]c2cc1Cl`, the melting point was more than 260 °C.

Regarding `CN1CCOc2cccc3nc4c(c1c23)CCCC4`, the melting point was 97 to 98 °C.

In the case of `COc1cc(OC)nc(NC(=O)NS(=O)(=O)Cc2ccccc2-c2nnc(SC)o2)n1`, the melting point fell in the range of 174 to 177 °C.

In the case of `O=c1cc(Cc2c[nH]c3ccccc23)[nH]n1C1CCCCC1`, the melting point is 192 to 194 °C.

Take `CCCCOCCOc1ccc(-c2ccc(N3CCC(C)C3)c(C=CC(=O)O)c2)cc1` (stereo not drawn): the melting point lay in the range of 136 to 139 °C.

In the case of `O=C(NCc1ccc(F)cc1)c1ccc2nc(N[C@@H]3CCc4ccccc43)ccc2c1`, the melting point was determined as 175 °C.

`Cc1ccc(C[C@@H]2CN(C(=O)/C=C/c3ccccc3)CCN2C(=O)c2cc(C(F)(F)F)cc(C(F)(F)F)c2)cc1C` showed a melting point of 87 to 91 °C.

Consider `O=Cc1csc(NC2CC2)n1`, for which the melting point lay in the range of 124 to 127 °C.

`COc1ccc(CNC(=O)c2nc3scc(COCc4ccc(C(=O)O)cc4)c3c(=O)[nH]2)cc1` registered a melting point of 271 to 273 °C.

Molecule `Cc1ccc(C(=O)N2CCN(CC3(C)Cc4c(C)c(N)c(C)c(C)c4O3)CC2)cc1` (stereo not drawn) yielded a melting point of 131 to 133 °C.

In turn, `CC12CCCc3c1n(c1ccccc31)C(=O)CC2` (stereo not drawn) yielded a melting point of 93 to 95 °C.

`COc1ccc(CS(=O)c2cc(OC)c(OC)c(OC)c2)cc1` (stereo not drawn) had a melting point of 103 to 105 °C.

`CCCC(CCC)N(C[C@H]1CCC[C@H](CN(C(=O)Nc2ccc(N(C)C)cc2)C(CCC)CCC)C1)C(=O)Nc1ccc(N(C)C)cc1` (relative stereo) came in with a melting point of 122 to 126 °C.

`CN(CCO)c1ccc([N+](=O)[O-])cn1` came in with a melting point of 83 to 84 °C.

`CCOc1cc2cc3c(Nc4cc(OC)c(Cl)cc4C)c(C#N)cnc3cc2cc1OCCN(CC(N)=O)CC(N)=O` came in with a melting point of 168 to 170 °C.

`CC(C)(C)C(=O)c1c[nH]c2ncc(C3CC3)nc12` returned a melting point of 266 to 268 °C.

In turn, `COc1ccc2[nH]c(/C(=C/c3ccccc3)c3ccccc3)cc2c1` came in with a melting point of 144 to 147 °C.

Take `CCCNC1CCC(O)CC1` (stereo not drawn): the melting point amounted to 20 °C.

`CCCCN(CCCC)c1ccc(C=CC2=C(C#N)C(=C(C#N)C#N)OC2(C)C(F)(F)F)c(OC)c1` (stereo not drawn) had a melting point of 211 to 213 °C.

Molecule `CCCn1nc2c(N)nc3ccccc3c2c1CCN(C(N)=O)c1ccc(F)cc1` came in with a melting point of 201 to 202 °C.

In turn, `O=c1[nH]c2ncc(-c3ccc(F)nc3)nc2n1CC1CCOCC1` gave a melting point of 220 to 222 °C.

The molecule `C#CC(C)NCC(O)COc1ccccc1C=Cc1nnc(C)s1` (stereo not drawn) had a melting point of 143 to 145 °C.

For the molecule `CC(O)c1sc(S(N)(=O)=O)cc1S(C)(=O)=O` (stereo not drawn), the melting point lay in the range of 121 to 127 °C.

As to `COc1cc(C(=O)NS(=O)(=O)c2ccccc2)ccc1Cc1cn(C)c2ccc(NC(=O)OC3CCCC3)cc12`, the melting point lay in the range of 125 to 130 °C.

For `Cc1ccc(NS(=O)(=O)c2ccccc2)c(C(=O)O)c1`, the melting point was 197 to 198 °C.

`CN(C)c1cccc2nc3cccc(C(=O)O)c3nc12`: the melting point fell in the range of 186 to 188 °C.

On to `COC(=O)c1ccc(OCC2CN(c3ccc(NC(C)=O)cc3)C(=O)O2)cc1` (stereo not drawn), for which the melting point is 188 to 190 °C.

For the molecule `C#CC[C@H]1C(=O)O[C@@H]1C[C@@H](CCCCCCCCCCCCCCCCC)O[Si](C)(C)C(C)(C)C`, the melting point fell in the range of 62 to 63 °C.

In turn, `O=C(O)c1cn(C2CC2)c2c(OC(F)F)c(F)c(F)cc2c1=O` showed a melting point of 202 to 207 °C.

The molecule `CC(C)Cc1cc(C(N)=O)nn1C` displayed a melting point of 118 to 120 °C.

Turning to `N#Cc1c[nH]c2cc(-c3ccccc3)sc2c1=O`, the melting point was more than 300 °C.

For `Nc1ccccc1S(=O)c1nc2cc(Cl)ccc2[nH]1` (stereo not drawn), the melting point lay within 176 to 178 °C.

As for `CCCCCc1nc2ccccc2[nH]1`, the melting point lay in the range of 161 to 162 °C.

For the molecule `NC(=O)CNC(=S)Nc1c(Cl)cccc1Cl`, the melting point lay in the range of 189 to 191 °C.

`NNC(=O)c1c(OCC(F)(F)F)cccc1OCC(F)(F)F`: the melting point lay within 153 to 154 °C.

With `Nc1cc(F)ccc1C(=O)CCCN1CCN(c2cc3ccccc3cn2)CC1`, the melting point lay within 124 to 128 °C.

In turn, `CCCCCCCCCCCCC(Oc1ccc(O)c(C(C)(C)C)c1)C(=O)OCC` (stereo not drawn) gave a melting point of 45 to 48 °C.

In turn, `CC(C)C(NC(=O)CCc1cccnc1)C(=O)NC(Cc1ccccc1)C(O)C(O)C(Cc1ccccc1)NC(=O)C(NC(=O)CCc1cccnc1)C(C)C` (stereo not drawn) gave a melting point of 260 to 263 °C.

`CC(=O)Oc1ccc(-n2c(-c3ccccc3)cc3c2CCCC3)cc1C(=O)O`: the melting point was in the range of 155 to 162 °C.

In the case of `O=C1c2cc(F)cc(F)c2-n2c1nc1ccccc1c2=O`, the melting point lay within 287 to 290 °C.

`CCCCOc1ccc(Cl)cc1C(=O)NCCc1ccc(CC(=O)O)cc1` registered a melting point of 104 to 105 °C.

`CC(C)CNc1cc2nnnn2c2cnccc12` came in with a melting point of 220 to 221 °C.

As for `CNC(=O)[C@@H](NC(=O)[C@@H](CC(=O)OCc1ccccc1)n1ccc(-c2ccc(C#N)cc2)c1)C(C)(C)C`, the melting point was 102 to 104 °C.

`O=S(=O)(O)c1ccc(Oc2ccc(-n3ccnc3)cc2)cc1` registered a melting point of 80 °C.

Molecule `CC(OC1CCCN(Cc2ncn[nH]2)C1c1ccccc1)c1cc(C(F)(F)F)cc(C(F)(F)F)c1` (stereo not drawn) gave a melting point of 182 to 183 °C.

With `COc1cc2c(cc1OC)CN(CCc1ccc(N)cc1)CC2`, the melting point stood at 120 °C.

`Cc1cc(C=NNC(=O)c2ccc(O)cc2)oc1C` displayed a melting point of 251 °C.

As to `CCCc1c(O)ccc2c1OC(C)(CCC(=O)OC)CC2=O` (stereo not drawn), the melting point was 102 °C.

Molecule `C#C[C@]1(C)CCc2c(C)c(OC)c(C)c(C)c2O1` gave a melting point of 94 to 97 °C.

For `O=C(NCc1cccs1)[C@@H]1CCCN(c2cccc3c2C(=O)N(Cc2ccncc2)C3=O)C1`, the melting point is 193 to 194 °C.

On to `CC(c1c[nH]c([N+](=O)[O-])n1)N1CCCCC1` (stereo not drawn), for which the melting point lay in the range of 61 to 62 °C.

Molecule `Clc1cnc(Oc2cccc(OCc3ccc(Cl)cc3Cl)c2)nc1` yielded a melting point of 110 °C.

Regarding `CN1CCN(c2ccccc2OCc2cc(CCC(=O)O)c3c(c2)CC(NS(=O)(=O)c2ccc(Cl)cc2)CC3)CC1` (stereo not drawn), the melting point came out at 122 °C.

Molecule `CC(=O)OCC1OC(n2cc(Cc3ccc(Br)s3)c3c(Cl)cccc32)C(OC(C)=O)C(OC(C)=O)C1OC(C)=O` (stereo not drawn) showed a melting point of 185 to 187 °C.

Molecule `COc1ccc(C(CC(=O)O)N2C(=O)c3cc(Cl)c(Cl)cc3C2=O)cc1` (stereo not drawn) displayed a melting point of 182 to 185 °C.

In turn, `C=CCOc1ccccc1OCCNCC(O)COc1cccc2c1CC(=O)N2` (stereo not drawn) had a melting point of 148 to 149 °C.

The molecule `COC(=O)C(CO)NS(=O)(=O)c1ccc(OC)cc1` (stereo not drawn) came in with a melting point of 92 to 94 °C.

Molecule `CCCCCCCCCCCCCCOc1cc(C(=O)OC)ccc1OC` yielded a melting point of 77 to 79 °C.

In turn, `Cc1ncc2cc(-c3c(C)cccc3Cl)c(N)nc2n1` registered a melting point of 267 to 271 °C.

In turn, `CC(C)c1nc(CN)n(C)c1Sc1cccc(Cl)c1` showed a melting point of 99 to 101 °C.

The values are drawn from a melting point compilation (Tetko et al.; mined from patent text by program, amines drawn as free bases though some values may be those of a salt).
